The IC50 is the concentration needed to halve the response being measured. A lower IC50 goes with greater potency.

In one assay the target is cMET (Homo sapiens, UniProt P08581). Kind of assay: Inhibitory activity against MET (cMET), TR-FRET kinase assay. As to conditions: TR-FRET enzyme assay. Format: biochemical. The protocol: In addition, in order to measure the enzyme activity inhibition for cMET, the evaluation was performed in the same manner as the enzyme activity inhibition measurement experiment for RON.
Chain of cMET (P08581 25-1390): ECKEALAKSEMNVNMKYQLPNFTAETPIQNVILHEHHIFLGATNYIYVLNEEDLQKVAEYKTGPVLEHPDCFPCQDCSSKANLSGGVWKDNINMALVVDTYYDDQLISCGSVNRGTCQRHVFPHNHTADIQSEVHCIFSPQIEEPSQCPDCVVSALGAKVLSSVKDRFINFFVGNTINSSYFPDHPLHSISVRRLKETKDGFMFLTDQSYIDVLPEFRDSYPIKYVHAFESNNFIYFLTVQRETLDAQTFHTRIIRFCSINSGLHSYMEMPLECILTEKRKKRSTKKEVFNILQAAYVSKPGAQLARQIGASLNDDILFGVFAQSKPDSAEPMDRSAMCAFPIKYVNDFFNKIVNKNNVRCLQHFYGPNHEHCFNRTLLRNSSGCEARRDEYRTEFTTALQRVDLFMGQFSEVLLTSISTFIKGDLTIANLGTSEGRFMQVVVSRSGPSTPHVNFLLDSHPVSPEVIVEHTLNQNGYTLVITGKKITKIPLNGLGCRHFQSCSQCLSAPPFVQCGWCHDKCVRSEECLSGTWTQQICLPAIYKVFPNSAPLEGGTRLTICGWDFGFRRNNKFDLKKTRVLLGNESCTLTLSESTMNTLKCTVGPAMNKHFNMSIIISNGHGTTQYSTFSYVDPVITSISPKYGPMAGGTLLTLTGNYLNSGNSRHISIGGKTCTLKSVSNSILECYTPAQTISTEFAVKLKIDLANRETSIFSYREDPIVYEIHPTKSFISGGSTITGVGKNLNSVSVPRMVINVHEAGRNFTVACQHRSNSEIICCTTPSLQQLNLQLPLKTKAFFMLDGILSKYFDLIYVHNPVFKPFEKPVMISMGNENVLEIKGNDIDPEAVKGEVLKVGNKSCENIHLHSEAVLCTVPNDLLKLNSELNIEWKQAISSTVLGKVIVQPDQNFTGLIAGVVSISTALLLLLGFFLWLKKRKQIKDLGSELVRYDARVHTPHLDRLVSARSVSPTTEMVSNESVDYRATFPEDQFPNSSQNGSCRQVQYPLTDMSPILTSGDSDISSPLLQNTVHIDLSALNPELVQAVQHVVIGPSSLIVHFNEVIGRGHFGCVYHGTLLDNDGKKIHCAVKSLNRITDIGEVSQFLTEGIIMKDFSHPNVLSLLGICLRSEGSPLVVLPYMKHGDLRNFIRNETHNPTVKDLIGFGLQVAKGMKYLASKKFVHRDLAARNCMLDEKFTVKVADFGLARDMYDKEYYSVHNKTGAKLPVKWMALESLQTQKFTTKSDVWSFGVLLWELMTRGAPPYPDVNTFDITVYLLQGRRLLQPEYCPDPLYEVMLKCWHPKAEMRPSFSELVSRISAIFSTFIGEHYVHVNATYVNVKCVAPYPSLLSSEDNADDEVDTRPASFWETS
Specifically, the compound was prepared to a concentration of 1 mM in 100% DMSO and was diluted 10 times in a stepwise manner through 3-fold dilution. The compound (2 ul) diluted in a stepwise manner was added to a 96-well-plate containing 48 ul of a 1×kinase reaction buffer (50 mM HEPES (pH 7.4), 0.05% BSA, 0.005% Tween-20, 1 mM DTT, 0.5 mM MnCl2, 20 mM MgCl2).
The cMET protein was diluted to a concentration of 263 nM in a cMET storage buffer (50 mM Tris-HCl (pH 7.5), 150 mM NaCl, 0.05% Brij35, 1 mM DTT, 10% Glycerol), and then diluted again to a concentration of 2 nM in a 1×kinase reaction buffer. As a substrate cocktail, a MET-specific substrate mixed solution (5 uM TK peptide, 10 mM ATP) was prepared at a concentration 2 times the final reaction concentration.
(§1) Thereafter, a 384-well-plate was prepared, and 2.5 μl of each of the diluted compounds of Examples was added to a corresponding well of experimental group wells, and 2.5 μl of a 4% DMSO solution was dispensed into high control wells and low control wells.
(§2) Thereafter, 2.5 μL of 2 nM cMET was dispensed into each of the high control wells and the experimental group wells, and 2.5 μL of the 1× kinase reaction buffer was added to the low control wells, and all the wells were centrifuged at room temperature for 40 seconds at 1,000 RPM, and then incubated at room temperature for 20-30 minutes. Then, 5 μL of the substrate cocktail (2×) was dispensed into each well, and all the wells were centrifuged at room temperature for 40 seconds at 1,000 RPM, and then incubated at room temperature for 60 minutes. Thereafter, 5 μL of 90 mM EDTA was added to each well to terminate the reaction, and all the wells were then incubated again at room temperature for 5 minutes. Thereafter, 5 μL of a 4×phosphotyrosine antibody (Perkin Elmer) containing europium was added to each well, and all the wells were then incubated at room temperature for 60 minutes. After the incubation, the 384-well-plate was read with the Vison plate reader. In this case, the excitation wavelength was 340 nm, and the emission wavelength was 620 nm and 665 nm. The pe50 value of each compound of Examples was derived using the GraphPd Prism7 program.
A general note: In TR-FRET formats the signal depends on donor and acceptor labels being close together.

A further assay has as its target RON (Homo sapiens, UniProt Q04912). Put plainly: Inhibitory activity against RON, TR-FRET kinase assay. Format: biochemical. As to conditions: TR-FRET enzyme assay. The procedure:
In order to measure the inhibitory activity of each of the compounds of Examples against RON, the IC50 of each of the compounds was measured using Time-resolved fluorescence energy transfer (TR-FRET).
Specifically, the compound was prepared to a concentration of 1 mM in 100% DMSO and was diluted 10 times in a stepwise manner through 3-fold dilution. The compound (2 ul) diluted in a stepwise manner was added to a 96-well-plate containing 48 ul of a 1× kinase reaction buffer (50 mM HEPES (pH 7.4), 0.01% Tween-20, 5 mM DTT, 0.5 mM Na3VO4, 2 mM EGTA, 10 mM MgCl2).
The RON protein was diluted to a concentration of 49.3 nM in a RON storage buffer (50 mM Tris-HCl (pH 7.5), 150 mM NaCl, 0.5 mM EDTA, 0.02% Triton X-100), and then diluted again to a concentration of 0.4 nM in a 1×kinase reaction buffer. As a substrate cocktail, a RON-specific substrate mixed solution (40 uM ULight-labeled Poly GT, 100 nM ATP) was prepared at a concentration 2 times the final reaction concentration.
as §1
as §2, with “of 0.4” for “of 2”, “nM RON” for “nM cMET”, “of 30” for “of 90”, “The IC50” for “The pe50”

Chain of RON (Q04912 25-1400, species assumed): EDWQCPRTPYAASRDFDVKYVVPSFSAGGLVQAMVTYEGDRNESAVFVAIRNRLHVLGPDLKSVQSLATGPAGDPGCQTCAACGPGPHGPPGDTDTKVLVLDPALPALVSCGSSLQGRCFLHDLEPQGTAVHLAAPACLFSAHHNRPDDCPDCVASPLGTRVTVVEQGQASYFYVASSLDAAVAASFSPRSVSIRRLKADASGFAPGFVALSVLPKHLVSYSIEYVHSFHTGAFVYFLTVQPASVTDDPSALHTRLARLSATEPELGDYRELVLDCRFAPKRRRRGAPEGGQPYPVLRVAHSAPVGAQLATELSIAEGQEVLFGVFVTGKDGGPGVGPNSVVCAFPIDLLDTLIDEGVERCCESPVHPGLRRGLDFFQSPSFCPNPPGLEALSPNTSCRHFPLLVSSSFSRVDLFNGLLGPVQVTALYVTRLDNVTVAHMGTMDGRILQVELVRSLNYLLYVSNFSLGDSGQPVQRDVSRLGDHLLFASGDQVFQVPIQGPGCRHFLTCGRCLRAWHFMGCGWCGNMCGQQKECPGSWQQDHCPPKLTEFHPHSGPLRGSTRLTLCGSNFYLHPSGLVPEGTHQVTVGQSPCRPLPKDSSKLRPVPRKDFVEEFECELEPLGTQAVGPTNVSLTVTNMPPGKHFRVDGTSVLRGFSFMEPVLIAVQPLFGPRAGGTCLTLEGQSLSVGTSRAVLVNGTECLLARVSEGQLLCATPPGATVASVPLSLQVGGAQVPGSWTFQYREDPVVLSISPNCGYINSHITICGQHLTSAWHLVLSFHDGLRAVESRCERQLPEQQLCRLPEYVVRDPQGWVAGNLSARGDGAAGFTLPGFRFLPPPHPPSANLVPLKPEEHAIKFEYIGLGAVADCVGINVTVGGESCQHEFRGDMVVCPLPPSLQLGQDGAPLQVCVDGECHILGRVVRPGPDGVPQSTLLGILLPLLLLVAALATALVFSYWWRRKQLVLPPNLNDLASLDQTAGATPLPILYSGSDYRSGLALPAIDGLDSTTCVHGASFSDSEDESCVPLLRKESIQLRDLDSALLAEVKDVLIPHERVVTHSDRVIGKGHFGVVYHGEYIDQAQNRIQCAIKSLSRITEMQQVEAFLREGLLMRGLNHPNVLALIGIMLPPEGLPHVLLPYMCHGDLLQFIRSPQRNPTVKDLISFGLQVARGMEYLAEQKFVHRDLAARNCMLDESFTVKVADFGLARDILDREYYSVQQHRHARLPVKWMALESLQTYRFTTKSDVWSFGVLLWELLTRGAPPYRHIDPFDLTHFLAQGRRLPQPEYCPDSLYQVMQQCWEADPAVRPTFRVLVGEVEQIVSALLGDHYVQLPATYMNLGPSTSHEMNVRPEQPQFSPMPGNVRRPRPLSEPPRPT

On to `Nc1cc(Oc2ccc(NC(=O)c3cnn(-c4ncccc4F)c3C(F)(F)F)cc2F)ccn1` [Example 31, N-(4-((2-aminopyridin-4-yl)oxy)-3-fluorophenyl)-1-(3-fluoropyridin-2-yl)-5-(trifluoromethyl)-1H-pyrazole-4-carboxamide], for which the figures for the IC50 against cMET and on RON were over 5 µM and under 0.05 µM, respectively.
The corresponding values for `Nc1nccc(Oc2ccc(NC(=O)c3cnn(-c4ncc(O)cn4)c3C(F)(F)F)cc2F)c1Cl` [Example 27, N-(4-((2-amino-3-chloropyridin-4-yl)oxy)-3-fluorophenyl)-1-(5-hydroxypyrimidin-2-yl)-5-(trifluoromethyl)-1H-pyrazole-4-carboxamide] are over 5 µM and 0.05 to 0.5 µM.
Turning to `CCc1c(C(=O)Nc2ccc(Oc3ccnc(N)c3I)c(F)c2)cnn1-c1ncccc1Cl` [Example 38, N-(4-((2-amino-3-iodopyridin-4-yl)oxy)-3-fluorophenyl)-1-(3-chloropyridin-2-yl)-5-ethyl-1H-pyrazole-4-carboxamide], the IC50 against cMET is 0.5 to 5 µM; against RON it was under 0.05 µM.
Regarding `Cc1csc(-n2ncc(C(=O)Nc3ccc(Oc4ccnc(N)c4Cl)c(F)c3)c2C(F)(F)F)n1` [Example 40, N-(4-((2-amino-3-chloropyridin-4-yl)oxy)-3-fluorophenyl)-1-(4-methylthiazol-2-yl)-5-(trifluoromethyl)-1H-pyrazole-4-carboxamide], the IC50 was over 5 µM at cMET and 0.05 to 0.5 µM against RON.
Consider `CCc1ccnc(-n2ncc(C(=O)Nc3ccc(Oc4ncnc(N)c4Cl)c(F)c3)c2C(F)(F)F)c1` [Example 55, N-[4-(6-amino-5-chloro-pyrimidin-4-yl)oxy-3-fluoro-phenyl]-1-(4-ethyl-2-pyridyl)-5-(trifluoromethyl)pyrazole-4-carboxamide], for which the IC50 was over 5 µM against cMET and 0.5 to 5 µM on RON.
The corresponding values for `COc1cccnc1-n1ncc(C(=O)Nc2ccc(Oc3ccnc(N)c3Cl)c(F)c2)c1C(F)(F)F` [Example 15, N-(4-((2-amino-3-chloropyridin-4-yl)oxy)-3-fluorophenyl)-1-(3-methoxypyridin-2-yl)-5-(trifluoromethyl)-1H-pyrazole-4-carboxamide] are 0.5 to 5 µM and 0.05 to 0.5 µM.
Turning to `Nc1nccc(Oc2ccc(NC(=O)c3cnn(-c4ccc(F)cn4)c3C(F)(F)F)cc2F)c1Cl` [Example 13, N-(4-((2-amino-3-chloropyridin-4-yl)oxy)-3-fluorophenyl)-1-(5-fluoropyridin-2-yl)-5-(trifluoromethyl)-1H-pyrazole-4-carboxamide], the IC50 on cMET was over 5 µM; on RON, 0.05 to 0.5 µM.
On to `Nc1nccc(Oc2ccc(NC(=O)c3cnn(-c4ncccc4F)c3C(F)(F)F)cc2F)c1NC1CCCCC1` [Example 33, N-(4-((2-amino-3-(cyclohexylamino)pyridin-4-yl)oxy)-3-fluorophenyl)-1-(3-fluoropyridin-2-yl)-5-(trifluoromethyl)-1H-pyrazole-4-carboxamide], for which the results for the IC50 against cMET and at RON were over 5 µM and 0.05 to 0.5 µM, respectively.
In the case of `Nc1ncnc(Oc2ccc(NC(=O)c3cnn(-c4cccnc4)c3C(F)(F)F)cc2F)c1Cl` [Example 56, N-[4-(6-amino-5-chloro-pyrimidin-4-yl)oxy-3-fluoro-phenyl]-1-(3-pyridyl)-5-(trifluoromethyl)pyrazole-4-carboxamide], the IC50 was over 5 µM against cMET and 0.05 to 0.5 µM against RON.
In the same order, the values of `Nc1ncnc(Oc2ccc(NC(=O)c3cnn(-c4ccccn4)c3C(F)(F)F)cc2F)c1Cl` [Example 43, N-(4-((6-amino-5-chloropyrimidin-4-yl)oxy)-3-fluorophenyl)-1-(pyridin-2-yl)-5-(trifluoromethyl)-1H-pyrazole-4-carboxamide] are over 5 µM and under 0.05 µM.
On to `Cc1ccnc(-n2ncc(C(=O)Nc3ccc(Oc4ncnc(N)c4Cl)c(F)c3)c2C(F)(F)F)n1` [Example 62, N-[4-(6-amino-5-chloro-pyrimidin-4-yl)oxy-3-fluoro-phenyl]-1-(4-methylpyrimidin-2-yl)-5-(trifluoromethyl)pyrazole-4-carboxamide], for which the IC50 against cMET is over 5 µM; against RON, 0.05 to 0.5 µM.

The values are drawn from patent publication US20240425480A1, “NOVEL PYRIDINE DERIVATIVE COMPOUND AS RON INHIBITOR” (LG CHEM, LTD., priority 2021, published 2024).
